Data from PubChem BioAssay AID651798 (Broad Institute, 2012).
Calls of active or inactive are those of the source.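 How the source made its calls: active means fitted AC50 at or below twice the top valid dose, with signal falling as dose rises; inconclusive means flat fit between -30 and -70%, or poor fit; inactive means the rest, including rising effects.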

Each compound was assayed against Kelch-like ECH-associated protein 1 (Homo sapiens) (UniProt Q14145) (assay: disruptors of Keap1 Kelch-Nrf2 peptide binding – biochemical, fluorescence polarization, dry powder samples, dose response (AID 651798)). Settings: Keap1 Kelch/FITC-Nrf2 peptide fluorescence polarization.
Kelch-like ECH-associated protein 1 (Homo sapiens), sequence (Q14145 whole entry, looked up): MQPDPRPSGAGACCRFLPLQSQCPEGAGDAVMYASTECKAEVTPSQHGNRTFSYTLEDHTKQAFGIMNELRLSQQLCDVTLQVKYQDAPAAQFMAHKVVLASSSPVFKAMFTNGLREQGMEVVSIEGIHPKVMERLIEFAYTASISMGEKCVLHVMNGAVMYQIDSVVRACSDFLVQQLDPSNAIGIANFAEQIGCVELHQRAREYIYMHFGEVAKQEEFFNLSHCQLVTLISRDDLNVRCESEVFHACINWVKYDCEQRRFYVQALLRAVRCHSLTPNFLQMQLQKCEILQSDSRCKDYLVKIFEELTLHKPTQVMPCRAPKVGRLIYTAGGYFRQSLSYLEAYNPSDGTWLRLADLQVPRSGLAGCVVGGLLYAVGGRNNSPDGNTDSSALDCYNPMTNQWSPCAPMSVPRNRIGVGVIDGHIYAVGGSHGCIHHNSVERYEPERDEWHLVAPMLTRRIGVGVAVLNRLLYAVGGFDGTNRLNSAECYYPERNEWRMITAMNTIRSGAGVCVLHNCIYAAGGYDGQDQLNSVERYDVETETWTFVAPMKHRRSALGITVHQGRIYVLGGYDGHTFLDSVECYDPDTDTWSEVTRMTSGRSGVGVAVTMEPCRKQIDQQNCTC

Row | SMILES | AC50
1 | Cc1ccc(S(=O)(=O)Nc2cc(C(C(=O)OC(C)C)C(=O)C(F)(F)F)c(O)c3ccccc23)cc1 (stereo unspecified) | 7.25 µM
2 | CC(C)OC(=O)C(C(=O)C(F)(F)F)c1cc(NS(=O)(=O)c2ccccc2)c2ccccc2c1O (stereo unspecified) | 21.8 µM
3 | O=C(O)Cc1ccccc1C(=O)N1CCc2ccccc2[C@H]1CN1C(=O)c2ccccc2C1=O | 28.3 µM
4 | CC(=O)Nc1cc(NS(=O)(=O)c2c(C)cc(C)cc2C)c2ccccc2c1O | 15.2 µM
5 | O=C(O)C1CCCCC1C(=O)N1CCc2ccccc2C1CN1C(=O)[C@H]2CCCC[C@H]2C1=O (stereo partly specified) | > 100 µM (inactive)
6 | O=C(O)[C@H]1CCCC[C@H]1C(=O)N1CCC2=C(CCCC2)C1CN1C(=O)c2ccccc2C1=O (stereo partly specified) | > 100 µM (inactive)
7 | Cc1ccccc1S(=O)(=O)Nc1cc(C(C(=O)OC(C)C)C(=O)C(F)(F)F)c(O)c2ccccc12 (stereo unspecified) | 3.2 µM
8 | O=C(O)C1CCCCC1C(=O)N1CCc2ccccc2C1CN1Cc2ccccc2C1=O (stereo unspecified) | 31.9 µM
9 | Cc1ccc(S(=O)(=O)Nc2cc(C(C(=O)OC(C)C)C(=O)C(F)(F)F)c(O)c3ccccc23)c(C)c1 (stereo unspecified) | 2.26 µM
10 | O=C(NCCc1ccccc1)c1ccccc1C(=O)NC[C@@H]1c2ccccc2CCN1C(=O)C1CCCCC1C(=O)O (stereo partly specified) | > 100 µM (inactive)
11 | Cc1ccc(S(=O)(=O)NC(=O)[C@@H]2c3ccccc3CCN2C(=O)[C@@H]2CCCC[C@@H]2C(=O)O)cc1 | > 100 µM (inactive)
12 | NC(=O)c1ccccc1C(=O)NC[C@@H]1c2ccccc2CCN1C(=O)[C@@H]1CCCC[C@@H]1C(=O)O | > 100 µM (inactive)
13 | O=C(O)C1CCCCC1C(=O)N1CCc2ccccc2C1CN1C(=O)Cc2ccccc2C1=O (stereo unspecified) | > 100 µM (inactive)
14 | O=C(O)[C@H]1C2C=CC(C2)[C@H]1C(=O)N1CCc2ccccc2C1CN1C(=O)c2ccccc2C1=O (stereo partly specified) | > 100 µM (inactive)

Same assay, conditions: Keap1 Kelch/FITC-Nrf2 peptide fluorescence polarization; at 50 µM (top of the series)

Row | SMILES | activity change, negative = inhibition
15 | O=C(O)CC(=O)N1CCc2ccccc2C1CN1C(=O)c2ccccc2C1=O (stereo unspecified) | inactive
16 | Cc1ccc(S(=O)(=O)NNc2nc(C(C(=O)OC(C)C)C(=O)C(F)(F)F)nc3ccccc23)cc1 (stereo unspecified) | inactive
17 | O=C1c2ccccc2C(=O)N1C[C@@H]1c2ccccc2CCN1C(=O)C1CCCCC1 | inactive
18 | COc1ccccc1CCNC(=O)[C@@H]1c2ccccc2CCN1C(=O)C1CCCCC1C(=O)O (stereo partly specified) | inactive
19 | O=C(O)C1CCCCC1C(=O)N1CCc2ccccc2[C@H]1C(=O)NC12CC3CC(CC(C3)C1)C2 (stereo partly specified) | inactive
20 | O=C(O)C1CCCCC1C(=O)N1CCc2ccccc2[C@H]1C(=O)NCCc1ccccc1 (stereo partly specified) | inactive
21 | O=C1c2ccccc2C(=O)N1C[C@H]1NCCc2ccccc21 | inactive
22 | O=C(O)[C@H]1CCCC[C@H]1C(=O)N1CCc2ccccc2C1CCN1C(=O)c2ccccc2C1=O (stereo partly specified) | inactive
23 | C[C@@H](NC(=O)C1CCCC[C@H]1C(=O)O)c1ccccc1 (mixture of isomers) | inactive
24 | Cc1cc(C)c(S(=O)(=O)Nc2ncnc3ccccc23)c(C)c1 | inactive
25 | CC(C)CNc1nc(NS(=O)(=O)c2ccccc2)c2ccccc2n1 | inactive
26 | Cc1ccc(S(=O)(=O)NC2=CC(=N[C@@H](C)C(=O)OC(C)(C)C)C(=O)c3ccccc32)c(C)c1 | inactive
27 | O=C(NC[C@@H]1c2ccccc2CCN1C(=O)[C@@H]1CCCC[C@@H]1C(=O)O)OCC1c2ccccc2-c2ccccc21 | inactive
28 | O=C1c2ccccc2C(=O)N1CC1=NCCc2ccccc21 | inactive
29 | O=C(NC[C@@H]1c2ccccc2CCN1C(=O)[C@@H]1CCCC[C@@H]1C(=O)O)c1ccccc1 | inactive
30 | O=C(O)C1CCCCC1C(=O)N1CCCCC1CN1C(=O)c2ccccc2C1=O (stereo unspecified) | inactive
31 | O=C(NC[C@@H]1c2ccccc2CCN1C(=O)[C@@H]1CCCC[C@@H]1C(=O)O)c1ccccc1CO | inactive
32 | COC(=O)[C@@H]1CCCC[C@@H]1C(=O)N1CCc2ccccc2[C@@H]1CN1C(=O)c2ccccc2C1=O | inactive
33 | COC(=O)CNc1nc(NS(=O)(=O)c2c(C)cc(C)cc2C)c2ccccc2n1 | inactive

Row | SMILES | activity change, negative = inhibition
34 | O=C(NC[C@@H]1c2ccccc2CCN1C(=O)[C@@H]1CCCC[C@@H]1C(=O)O)c1ccc(CN2CCOCC2)cc1 | inactive
35 | O=C(O)c1ccccc1C(=O)N1CCc2ccccc2C1CN1C(=O)c2ccccc2C1=O (stereo unspecified) | inactive
36 | O=C(O)C1CCCCC1C(=O)N1CCc2ccccc2C1c1ccccc1 (stereo unspecified) | inactive
37 | C[C@H](NC(=O)C1CCCC[C@H]1C(=O)O)c1ccccc1 (mixture of isomers) | inactive
38 | Cc1cc(C)c(S(=O)(=O)Nc2cc(C(C(=O)OCc3ccccc3)C(=O)OCc3ccccc3)c(O)c3ccccc23)c(C)c1 | inactive
39 | COC(=O)[C@H]1CCCC[C@H]1C(=O)N1CCc2ccccc2[C@H]1CN1C(=O)c2ccccc2C1=O | inactive
40 | Cc1ccc(S(=O)(=O)NC[C@@H]2c3ccccc3CCN2C(=O)[C@@H]2CCCC[C@@H]2C(=O)O)c(C)c1 | inactive
41 | O=C(O)[C@H]1CCCC[C@H]1C(=O)N1CCC2=C(CCCC2)C1CN1C(=O)c2ccccc2C1=O (stereo partly specified) | inactive
42 | COc1ccc(CCN=C2C=C(NS(=O)(=O)c3c(C)cc(C)cc3C)c3ccccc3C2=O)cc1 | inactive
43 | C=CC(=O)NC[C@@H]1c2ccccc2CCN1C(=O)[C@@H]1CCCC[C@@H]1C(=O)O | inactive
44 | O=C(O)[C@H]1CCCC[C@H]1C(=O)NC(CN1C(=O)c2ccccc2C1=O)c1ccccc1 (stereo partly specified) | inactive
45 | CCOC(=O)C(C(=O)OCC)c1cc(CN2C(=O)c3ccccc3C2=O)c2ccccc2n1 | inactive
46 | O=C(O)CCC(=O)N1CCc2ccccc2C1CN1C(=O)c2ccccc2C1=O (stereo unspecified) | inactive
47 | O=C(O)C1CCCCC1C(=O)NCC1c2ccccc2CCN1C(=O)Cc1ccccc1 (stereo unspecified) | inactive
48 | Cc1cc(C)c(S(=O)(=O)Nc2nc(NCCO)nc3ccccc23)c(C)c1 | inactive
49 | O=C(NCCCN1CCOCC1)c1ccccc1C(=O)NC[C@@H]1c2ccccc2CCN1C(=O)C1CCCCC1C(=O)O (stereo partly specified) | inactive
50 | O=C1c2ccccc2C(=O)N1C[C@@H]1c2ccccc2CCN1C(=O)OCc1ccccc1 | inactive
51 | O=C(O)[C@H]1CCCC[C@H]1C(=O)N1CCc2ccccc2[C@H]1CNc1nc(Cl)nc2ccccc12 | inactive
52 | O=C(O)CCCC(=O)N1CCc2ccccc2C1CN1C(=O)c2ccccc2C1=O (stereo unspecified) | inactive

Row | SMILES | activity change, negative = inhibition
53 | Cc1ccc(S(=O)(=O)NC(=O)[C@@H]2c3ccccc3CCN2C(=O)[C@@H]2CCCC[C@@H]2C(=O)O)cc1 | inactive
54 | O=C(O)[C@H]1CCCC[C@H]1C(=O)N1CCc2ccccc2[C@H]1CNS(=O)(=O)c1ccccc1 | inactive
55 | COC(=O)[C@@H]1CCCC[C@@H]1C(=O)N1CCc2ccccc2[C@H]1CN1C(=O)c2ccccc2C1=O | inactive
56 | CCOC(=O)Cc1nc(NS(=O)(=O)c2c(C)cc(C)cc2C)c2ccccc2n1 | inactive
57 | O=C(Oc1cc(CN2C(=O)c3ccccc3C2=O)c2ccccc2[n+]1[O-])c1cccc(Cl)c1 | inactive
58 | O=C(Cc1ccccc1)NC[C@@H]1c2ccccc2CCN1C(=O)[C@@H]1CCCC[C@@H]1C(=O)O | inactive
59 | O=C(O)C1CCCCC1C(=O)Nc1ccccc1CN1C(=O)c2ccccc2C1=O (stereo unspecified) | inactive
60 | O=C(O)c1ccccc1C(=O)NC[C@@H]1c2ccccc2CCN1C(=O)[C@@H]1CCCC[C@@H]1C(=O)O | inactive
61 | O=C(O)[C@H]1CCCC[C@H]1C(=O)N1CCc2ccccc2[C@H]1CNS(=O)(=O)c1ccc([N+](=O)[O-])cc1 | inactive
62 | O=C(O)[C@@H]1CCCN1C(=O)N1CCc2ccccc2[C@H]1CN1C(=O)c2ccccc2C1=O | inactive
63 | O=C(O)[C@H]1CCCC[C@H]1C(=O)N1CCc2ccccc2C1 (racemic) | inactive
64 | COC(=O)C1CCCCC1C(=O)N1CCc2ccccc2C1CN1C(=O)c2ccccc2C1=O (stereo unspecified) | inactive
65 | O=S(=O)(Nc1nc(NCC2CCCCC2)nc2ccccc12)c1ccccc1 | inactive
66 | O=C(NCCO)c1ccccc1C(=O)NC[C@@H]1c2ccccc2CCN1C(=O)C1CCCCC1C(=O)O (stereo partly specified) | inactive
67 | CCOC(=O)C(C(=O)OCC)c1nc(NS(=O)(=O)c2c(C)cc(C)cc2C)c2ccccc2n1 | inactive
68 | O=C(NC[C@@H]1c2ccccc2CCN1C(=O)[C@@H]1CCCC[C@@H]1C(=O)O)c1ccc(CCl)cc1 | inactive
69 | Cc1cc(C)c(S(=O)(=O)Nc2nc(C(C(=O)OC(C)C)C(=O)C(F)(F)F)nc3ccccc23)c(C)c1 (stereo unspecified) | inactive
70 | Cc1ccc(S(=O)(=O)NNc2nc(NCC(N)=O)nc3ccccc23)cc1 | inactive
71 | CCOC(=O)C(C(=O)OCC)c1cc(CNS(=O)(=O)c2ccc(C)cc2C)c2ccccc2n1 | inactive
